Measurements taken from US12077503B2, “Substituted cyclic amides and their use as herbicides” (FMC CORPORATION, priority 2015, dated 2024).
Read-outs that look alike come from different tables or passages of the source.

Columns and labels:
Type in all cases: in vivo
Kochia (Kochia scoparia) [1] = assay: Test A preemergence; details: Bassia scoparia, pre-emergence, 240 h, preemergence, 0 to 100 scale where 0 is no effect and 100 is complete control, read-out: Kochia plant response rating; for pest or weed control at 125 g/ha: 125 g ai/ha, visual injury rating, approximately 10 d; for pest or weed control at 500 g/ha: 500 g ai/ha
Outline: (§1)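 Greenhouse, ~10 d after spray; visual injury vs untreated controls, 0 = no effect, 100 = complete control. Preemergence: directed soil spray over planted seeds. Postemergence: plants 2–10 cm, 1–2 leaf stage. Loam/sand blend. Compound in non-phytotoxic solvent with surfactant.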

[2] = test system: barnyardgrass (Echinochloa crus-galli); assay: Test A preemergence; details: Echinochloa crus-galli, pre-emergence, 240 h, preemergence, 0 to 100 scale where 0 is no effect and 100 is complete control, read-out: Barnyardgrass plant response rating; for pest or weed control at 125 g/ha: 125 g ai/ha, visual injury rating, approximately 10 d; for pest or weed control at 500 g/ha: 500 g ai/ha
Outline: as §1

[3] = test system: giant foxtail (Setaria faberii); assay: Test A preemergence; details: Setaria faberi, pre-emergence, 240 h, preemergence, 0 to 100 scale where 0 is no effect and 100 is complete control, read-out: Foxtail, Giant plant response rating; for pest or weed control at 125 g/ha: 125 g ai/ha, visual injury rating, approximately 10 d; for pest or weed control at 500 g/ha: 500 g ai/ha
Outline: as §1

[4] = test system: pigweed (Amaranthus retroflexus); assay: Test A preemergence; details: Amaranthus retroflexus, pre-emergence, 240 h, preemergence, 0 to 100 scale where 0 is no effect and 100 is complete control, read-out: Pigweed plant response rating; for pest or weed control at 125 g/ha: 125 g ai/ha, visual injury rating, approximately 10 d; for pest or weed control at 500 g/ha: 500 g ai/ha
[5] = test system: ragweed (common ragweed, Ambrosia elatior); assay: Test A preemergence; details: Ambrosia artemisiifolia, pre-emergence, 240 h, preemergence, 0 to 100 scale where 0 is no effect and 100 is complete control, read-out: Ragweed plant response rating; for pest or weed control at 125 g/ha: 125 g ai/ha, visual injury rating, approximately 10 d; for pest or weed control at 500 g/ha: 500 g ai/ha
Outline: as §1

[6] = test system: ryegrass, Italian (Italian ryegrass, Lolium multiflorum); assay: Test A preemergence; details: Lolium multiflorum, pre-emergence, 240 h, preemergence, 0 to 100 scale where 0 is no effect and 100 is complete control, read-out: Ryegrass, Italian plant response rating; for pest or weed control at 125 g/ha: 125 g ai/ha, visual injury rating, approximately 10 d; for pest or weed control at 500 g/ha: 500 g ai/ha
Outline: as §1

[7] = test system: Galium (catchweed bedstraw, Galium aparine); assay: Test A postemergence; details: Galium, post-emergence, 240 h; for pest or weed control at 125 g/ha: 125 g ai/ha, read-out: Galium plant response rating (0 to 100 scale); for pest or weed control at 500 g/ha: 500 g ai/ha, visual injury, 0 to 100 scale (0 no effect, 100 complete control), approx. 10 d, read-out: Plant response rating, Galium
Outline: as §1

Kochia (Kochia scoparia) [8] = assay: Test A postemergence; details: Bassia scoparia, post-emergence, 240 h; for pest or weed control at 125 g/ha: 125 g ai/ha, read-out: Kochia plant response rating (0 to 100 scale); for pest or weed control at 500 g/ha: 500 g ai/ha, visual injury, 0 to 100 scale (0 no effect, 100 complete control), approx. 10 d, read-out: Plant response rating, Kochia
Outline: as §1

[9] = test system: barnyardgrass (Echinochloa crus-galli); assay: Test A postemergence; details: Echinochloa crus-galli, post-emergence, 240 h; for pest or weed control at 125 g/ha: 125 g ai/ha; for pest or weed control at 500 g/ha: 500 g ai/ha, visual injury, 0 to 100 scale (0 no effect, 100 complete control), approx. 10 d, read-out: Plant response rating, Barnyardgrass
Outline: as §1

corn (Zea mays) = assay: Test A postemergence; details: Zea mays, post-emergence, 240 h; for plant injury at 125 g/ha: 125 g ai/ha, read-out: Corn plant response rating (0 to 100 scale); for Corn plant response rating (crop injury, 0 = no effect, 100 = complete kill) at 500 g/ha: 500 g ai/ha, visual injury, 0 to 100 scale (0 no effect, 100 complete control), approx. 10 d
Outline: as §1

[10] = test system: giant foxtail (Setaria faberii); assay: Test A postemergence; details: Setaria faberi, post-emergence, 240 h; for pest or weed control at 125 g/ha: 125 g ai/ha, read-out: Foxtail, Giant plant response rating (0 to 100 scale); for pest or weed control at 500 g/ha: 500 g ai/ha, visual injury, 0 to 100 scale (0 no effect, 100 complete control), approx. 10 d, read-out: Plant response rating, Foxtail, Giant
Outline: as §1

[11] = test system: pigweed (Amaranthus retroflexus); assay: Test A postemergence; details: Amaranthus retroflexus, post-emergence, 240 h; for pest or weed control at 125 g/ha: 125 g ai/ha, read-out: Pigweed plant response rating (0 to 100 scale); for pest or weed control at 500 g/ha: 500 g ai/ha, visual injury, 0 to 100 scale (0 no effect, 100 complete control), approx. 10 d, read-out: Plant response rating, Pigweed
Outline: as §1

[12] = test system: ragweed (common ragweed, Ambrosia elatior); assay: Test A postemergence; details: Ambrosia artemisiifolia, post-emergence, 240 h; for pest or weed control at 125 g/ha: 125 g ai/ha, read-out: Ragweed plant response rating (0 to 100 scale); for pest or weed control at 500 g/ha: 500 g ai/ha, visual injury, 0 to 100 scale (0 no effect, 100 complete control), approx. 10 d, read-out: Plant response rating, Ragweed
Outline: as §1

[13] = test system: ryegrass, Italian (Italian ryegrass, Lolium multiflorum); assay: Test A postemergence; details: Lolium multiflorum, post-emergence, 240 h; for pest or weed control at 125 g/ha: 125 g ai/ha, read-out: Ryegrass, Italian plant response rating (0 to 100 scale); for pest or weed control at 500 g/ha: 500 g ai/ha, visual injury, 0 to 100 scale (0 no effect, 100 complete control), approx. 10 d, read-out: Plant response rating, Ryegrass, Italian
Outline: as §1

[14] = test system: wheat (Triticum aestivum); assay: Test A postemergence; details: Triticum aestivum, post-emergence, 240 h; for plant injury at 125 g/ha: 125 g ai/ha, read-out: Wheat plant response rating (0 to 100 scale); for plant injury at 500 g/ha: 500 g ai/ha, visual injury, 0 to 100 scale (0 no effect, 100 complete control), approx. 10 d, read-out: Plant response rating, Wheat
Outline: as §1

[15] = postemergence, visual injury vs untreated controls after approx. 10 d, 0 = no effect, 100 = complete control
[16] = Postemergence, visual rating about 10 d after treatment

Cc1ccc([C@H]2CNC(=O)[C@@H]2C(=O)Nc2c(F)cccc2F)cc1C [Compound 1247]
pest or weed control at 125 g/ha (Kochia (Kochia scoparia) [1]): 0%
pest or weed control at 500 g/ha (Kochia (Kochia scoparia) [1]): 30%
pest or weed control at 125 g/ha [2]: 70%
pest or weed control at 500 g/ha [2]: 90%
pest or weed control at 125 g/ha [3]: 20%
pest or weed control at 500 g/ha [3]: 80%
pest or weed control at 125 g/ha [4]: 0%
pest or weed control at 500 g/ha [4]: 0%
pest or weed control at 125 g/ha [5]: 0%
pest or weed control at 500 g/ha [5]: 0%
pest or weed control at 125 g/ha [6]: 0%
pest or weed control at 500 g/ha [6]: 20%
pest or weed control at 125 g/ha [7, 15]: 0%
pest or weed control at 500 g/ha ([7]; Postemergence): 20%
pest or weed control at 125 g/ha (Kochia (Kochia scoparia) [8]; [15]): 0%
pest or weed control at 500 g/ha (Kochia (Kochia scoparia) [8]; Postemergence): 0%
pest or weed control at 125 g/ha ([9]; postemergence, visual injury vs untreated controls after approx. 10 d, 0 = no effect, 100 = complete control, read-out: Barnyardgrass plant response rating (0 to 100 scale)): 40%
pest or weed control at 500 g/ha ([9]; Postemergence): 70%
plant injury at 125 g/ha (corn (Zea mays); [15]): 0%
Corn plant response rating (crop injury, 0 = no effect, 100 = complete kill) at 500 g/ha (corn (Zea mays); Postemergence): 0%
pest or weed control at 125 g/ha [10, 15]: 0%
pest or weed control at 500 g/ha ([10]; Postemergence): 30%
pest or weed control at 125 g/ha [11, 15]: 0%
pest or weed control at 500 g/ha ([11]; Postemergence): 0%
pest or weed control at 125 g/ha [12, 15]: 0%
pest or weed control at 500 g/ha ([12]; Postemergence): 0%
pest or weed control at 125 g/ha [13, 15]: 0%
pest or weed control at 500 g/ha ([13]; Postemergence): 0%
plant injury at 125 g/ha [14, 15]: 0%
plant injury at 500 g/ha ([14]; Postemergence): 0%

Cc1c(F)cccc1NC(=O)[C@H]1C(=O)NC[C@@H]1c1cccc2c1OC(F)(F)O2 [Compound 1305]
pest or weed control at 125 g/ha (Kochia (Kochia scoparia) [1]): 0%
pest or weed control at 500 g/ha (Kochia (Kochia scoparia) [1]): 0%
pest or weed control at 125 g/ha [2]: 70%
pest or weed control at 500 g/ha [2]: 90%
pest or weed control at 125 g/ha [3]: 90%
pest or weed control at 500 g/ha [3]: 90%
pest or weed control at 125 g/ha [4]: 0%
pest or weed control at 500 g/ha [4]: 0%
pest or weed control at 125 g/ha [5]: 0%
pest or weed control at 500 g/ha [5]: 0%
pest or weed control at 125 g/ha [6]: 0%
pest or weed control at 500 g/ha [6]: 0%
pest or weed control at 125 g/ha [7, 16]: 0%
pest or weed control at 500 g/ha ([7]; Postemergence): 0%
pest or weed control at 125 g/ha (Kochia (Kochia scoparia) [8]; [16]): 0%
pest or weed control at 500 g/ha (Kochia (Kochia scoparia) [8]; Postemergence): 0%
pest or weed control at 125 g/ha ([9]; Postemergence, visual rating about 10 d after treatment, read-out: Barnyardgrass plant response rating (0 to 100 scale, 0 no effect, 100 complete control)): 60%
pest or weed control at 500 g/ha ([9]; Postemergence): 80%
plant injury at 125 g/ha (corn (Zea mays); [16]): 0%
Corn plant response rating (crop injury, 0 = no effect, 100 = complete kill) at 500 g/ha (corn (Zea mays); Postemergence): 0%
pest or weed control at 125 g/ha [10, 16]: 80%
pest or weed control at 500 g/ha ([10]; Postemergence): 90%
pest or weed control at 125 g/ha [11, 16]: 0%
pest or weed control at 500 g/ha ([11]; Postemergence): 0%
pest or weed control at 125 g/ha [12, 16]: 0%
pest or weed control at 500 g/ha ([12]; Postemergence): 0%
pest or weed control at 125 g/ha [13, 16]: 0%
pest or weed control at 500 g/ha ([13]; Postemergence): 0%
plant injury at 125 g/ha [14, 16]: 0%
plant injury at 500 g/ha ([14]; Postemergence): 20%
